Measured values taken from patent US20090011410A1, “METHOD FOR TAILORING ADMINISTRATION OF DRUGS BY QUANTITATION OF MRNA” (priority 2004, published 2009).

Test system: NOXA mRNA
Assay: drug-induced NOXA mRNA expression in whole blood of healthy adults (SYBR green PCR screen)
Type: cell-based, human
Conditions: 20 μM BLM or 100 μM VP-16, 4 hours at 37° C.; degree less than PUMA (FIG. 6)
Protocol: In 8-well strip microtubes, 1.4 μl of 50× concentrations of drugs or controls (phosphate buffered saline (PBS) or DMSO) were added, and stored at −20° C. until use. […] Seventy μl of fresh heparinized whole blood was added into each well in triplicate, and incubated at 37° C. for 2-8 hours with the cap closed. For radiation treatment, blood was stimulated at designated doses using cesium-137. After each treatment, 50 μl of whole blood was transferred to filterplates as described below.
The mRNA and cDNA were prepared from whole blood. In brief, home-made 96-well filterplates were placed over collection plates, and 150 μl 5 mM Tris, pH 7.4, was applied. Following centrifugation at 120×g for 1 min at 4° C., 50 μl of blood samples were applied to each well and immediately centrifuged at 120×g for 2 min at 4° C., followed by washing of each well with 300 μl PBS once with centrifugation at 2000×g for 5 min at 4° C. […] The Ct was determined by analytical software (SDS, ABI). […]
Quantitation of various mRNAs was conducted using the following method. […]

Molecule | NOXA induction
COc1cc([C@@H]2c3cc4c(cc3[C@@H](O[C@@H]3O[C@@H]5CO[C@@H](C)O[C@H]5[C@H](O)[C@H]3O)[C@H]3COC(=O)[C@H]23)OCO4)cc(OC)c1O [VP-16, etoposide] | induced in all individuals
bleomycin [BLM] | induced in all individuals
